From patent US20260373138A1, “COMPOUNDS WITH ANTIFUNGAL PROPERTIES” (priority 2023, published 2026) come the findings set out here.

The experiment concerns A. fumigatus CEA10 reference strain. Briefly: Fluconazole potentiator screen: MIC by CLSI microbroth dilution with and without fluconazole. Format: cell-based, Aspergillus fumigatus. The following applies: for MIC: Aspergillus fumigatus, read-out: MIC (ug/mL) (−) Fluc; for MIC / MIC (ug/mL) (+) Fluc: 18 h; for MIC (ug/mL) (+) Fluc: with 32 μg/ml fluconazole, normoxia, GMM, 37 °C; for potency / potentiation of fluconazole (in words): structure-activity statements, fluconazole potentiator screen. (In broth dilution the organism is exposed to a series of concentrations in liquid medium.)

Turning to `CC1CC(Cc2ccc(CN3CCOCC3)cc2)CCN1S(=O)(=O)c1cccc(F)c1` (stereo not shown) [MBX-8281], the MIC came out at 7.03 µg/mL and the “MIC (ug/mL) (+) Fluc” value is 1.40 µg/mL.
The like results for `O=C(c1ccsc1)N1CCC(Cc2ccc(CCOc3ccncc3)cc2)CC1` [MBX-8028] were, in that order, 0.4 µg/mL and 0.60 µg/mL.
On the same counts, the results for `O=C(c1ccsc1)N1CCC(Cc2ccc(COc3ccncc3)cc2)C1` (stereo not shown) [MBX-8240] are 4.73 µg/mL and 2.37 µg/mL.
In the case of `O=C(c1ccsc1)N1CC[C@@H](Cc2ccc(COc3ccncc3)cc2)C1` [MBX-8431], the MIC was determined as 3.78 µg/mL and the “MIC (ug/mL) (+) Fluc” value stood at 1.14 µg/mL.
On the same counts, the results for `O=C(c1ccsc1)N1CCC(Cc2ccc(CO)cc2)CC1` [MBX-8192] are above 15.8 µg/mL and above 15.8 µg/mL.
In the case of `O=C(c1ccsc1)N1CCC(Cc2ccc(COc3cncnc3)cc2)CC1` [MBX-8033], the MIC was 39 µg/mL, the “potency / potentiation of fluconazole (in words)” value (“potency / potentiation” below) is listed as “complete loss of activity” and the “MIC (ug/mL) (+) Fluc” value stood at 27.00 µg/mL.
The like results for `O=C(c1c[nH]cn1)N1CCC(Cc2ccc(COc3ccncc3)cc2)CC1` [MBX-7804] were, in that order, above 15 µg/mL, “not tolerated” and above 15 µg/mL.
Consider `COc1cc(OCc2ccc(CC3CCN(C(=O)c4ccsc4)CC3)cc2)ccn1` [MBX-8142], for which the MIC is above 21 µg/mL, the “potency / potentiation” value was “complete loss of activity” and the “MIC (ug/mL) (+) Fluc” value is above 21 µg/mL.
The like results for `Cc1cnccc1OCc1ccc(CC2CCN(C(=O)c3ccsc3)CC2)cc1` [MBX-8140] were, in that order, above 20 µg/mL, “complete loss of activity” and above 20 µg/mL.
For the compound `O=S(=O)(c1ccc(F)cc1)N1CCC2(CC1)CC(CCOc1ccncc1)CCO2` (stereo not shown) [MBX-7871], the MIC is 8.69 µg/mL and the “MIC (ug/mL) (+) Fluc” value came out at 1.09 µg/mL.
On the same counts, the results for `Cc1cccc(S(=O)(=O)N2CCC3(CC2)CC(CCOc2ccncc2)CCO3)c1` (stereo not shown) [MBX-7870] are above 17 µg/mL and 6.09 µg/mL.
On the same counts, the results for `O=C1c2ccsc2CCN1Cc1ccc(COc2ccncc2)cc1` [MBX-8243] are 8.76 µg/mL and 4.92 µg/mL.
As for `Cc1ccc(C(=O)N2CCC(Cc3ccc(COc4ccncc4)cc3)CC2)cc1` [MBX-7707], the MIC amounted to 1.18 µg/mL, the “potency / potentiation” value is “comparable activity to MBX-7591” and the “MIC (ug/mL) (+) Fluc” value was found to be 0.59 µg/mL.
For the compound `O=C(c1ccsc1)N1CCC(Cc2ccc(-c3ccncc3)cc2)CC1` [MBX-7964], the MIC came to 2.27 µg/mL, the “potency / potentiation” value is listed as “maintained potency” and the “MIC (ug/mL) (+) Fluc” value is 1.13 µg/mL.
Take `CC(c1ccc(CC2CCN(S(=O)(=O)c3ccc(F)cc3)CC2)cc1)N1CCOCC1` (stereo not shown) [MBX-8357]: the MIC is above 22 µg/mL and the “MIC (ug/mL) (+) Fluc” value is 5.60 µg/mL.
As to `CN1CCN(S(=O)(=O)N2CCC3(CC2)CC(CCOc2ccncc2)CCO3)CC1` (stereo not shown) [MBX-7951], the MIC is above 87 µg/mL, the “potency / potentiation” value is “complete loss of activity” and the “MIC (ug/mL) (+) Fluc” value was above 87 µg/mL.
Regarding `O=C(c1ccc(F)cc1)N1CCC(Cc2ccc(COc3ccncc3)cc2)CC1` [MBX-7706], the MIC was found to be 1.01 µg/mL, the “potency / potentiation” value is listed as “antagonistic effect” and the “MIC (ug/mL) (+) Fluc” value was determined as 8.09 µg/mL.
Regarding `O=C(O)c1cccc(S(=O)(=O)N2CCC3(CC2)CC(CCOc2ccncc2)CCO3)c1` (stereo not shown) [MBX-7962], the MIC is above 92 µg/mL and the “MIC (ug/mL) (+) Fluc” value is above 92 µg/mL.
On to `O=S(=O)(c1cccc(F)c1)N1CCC(Cc2ccc(CN3CC4CC(C3)O4)cc2)CC1` [MBX-8221], for which the MIC was above 17 µg/mL and the “MIC (ug/mL) (+) Fluc” value was above 22 µg/mL.
